# Species on record: Rattus norvegicus
# Assay: DrugMatrix - Regimen: Daily Repeat
# Assay type: toxicity, organism-based, Sprague-Dawley
# Design: regimen Daily Repeat, gender Male, age 6-8 weeks
# Conditions: in vivo, iv, vehicle 100 % SALINE; for ABSOLUTE BASOPHIL / ABSOLUTE EOSINOPHIL / ABSOLUTE LYMPHOCYTE / ABSOLUTE MONOCYTE / ABSOLUTE SEGMENTED NEUTROPHIL / BASOPHIL / EOSINOPHIL / ERYTHROCYTE COUNT / HEMATOCRIT / HEMOGLOBIN / LEUKOCYTE COUNT / LYMPHOCYTE / MEAN CORPUSCULAR HEMOGLOBIN / MEAN CORPUSCULAR HEMOGLOBIN CONCENTRATION / MEAN CORPUSCULAR VOLUME / MONOCYTE / NEUTROPHIL / NUCLEATED RED BLOOD CELLS / PLATELET COUNT: tissue Blood; for ALANINE AMINOTRANSFERASE / ALBUMIN / ALKALINE PHOSPHATASE / ASPARTATE AMINOTRANSFERASE / BLOOD UREA NITROGEN / CARBON DIOXIDE / CHLORIDE / CHOLESTEROL / CREATINE PHOSPHOKINASE / CREATININE / GLUCOSE / LACTATE DEHYDROGENASE / LIPASE / PHOSPHORUS / POTASSIUM / SODIUM / TOTAL BILIRUBIN / TOTAL PROTEIN / URIC ACID: tissue Plasma
# [1] = 0.005 mg/kg, 120 h, dose level Low, time 5 day
# [2] = 0.05 mg/kg, 72 h, dose level High, time 3 day
# [3] = 0.05 mg/kg, 120 h, dose level High, time 5 day
smiles,measurement,setting,value
CC(=O)O[C@H]1C[C@@H]2CC[C@@H]3[C@H](CC[C@@]4(C)[C@H]3C[C@H]([N+]3(C)CCCCC3)[C@@H]4OC(C)=O)[C@@]2(C)C[C@@H]1N1CCCCC1.[Br-] [VECURONIUM BROMIDE],ABSOLUTE BASOPHIL,[1],0 CELLS/uL
same,ABSOLUTE EOSINOPHIL,[1],82.33 CELLS/uL
same,ABSOLUTE LYMPHOCYTE,[1],12022.67 CELLS/uL
same,ABSOLUTE MONOCYTE,[1],265.33 CELLS/uL
same,ABSOLUTE SEGMENTED NEUTROPHIL,[1],796.33 CELLS/uL
same,BASOPHIL,[1],0%
same,EOSINOPHIL,[1],0.67%
same,ERYTHROCYTE COUNT,[1],5.48 x10E6/uL
same,HEMATOCRIT,[1],34.87%
same,HEMOGLOBIN,[1],13.83 G/DL
same,LEUKOCYTE COUNT,[1],13.17 x10E3/uL
same,LYMPHOCYTE,[1],91%
same,MEAN CORPUSCULAR HEMOGLOBIN,[1],25.23 pg
same,MEAN CORPUSCULAR HEMOGLOBIN CONCENTRATION,[1],39.7 G/DL
same,MEAN CORPUSCULAR VOLUME,[1],63.63 fL
same,MONOCYTE,[1],2%
same,NEUTROPHIL,[1],6.33%
same,NUCLEATED RED BLOOD CELLS,[1],0 /100WBC
same,PLATELET COUNT,[1],1117 x10E3/uL
same,ALANINE AMINOTRANSFERASE,[1],68.67 u/L
same,ALBUMIN,[1],4.17 G/DL
same,ALKALINE PHOSPHATASE,[1],419 u/L
same,ASPARTATE AMINOTRANSFERASE,[1],85 u/L
same,BLOOD UREA NITROGEN,[1],19.33 mg/dL
same,CARBON DIOXIDE,[1],30 mmol/L
same,CHLORIDE,[1],101.33 MEQ/L
same,CHOLESTEROL,[1],79 mg/dL
same,CREATINE PHOSPHOKINASE,[1],251.67 u/L
same,CREATININE,[1],0.25 mg/dL
same,GLUCOSE,[1],172 mg/dL
same,LACTATE DEHYDROGENASE,[1],116.67 u/L
same,LIPASE,[1],10.33 u/L
same,PHOSPHORUS,[1],12 mg/dL
same,POTASSIUM,[1],5.82 MEQ/L
same,SODIUM,[1],144.07 MEQ/L
same,TOTAL BILIRUBIN,[1],0.2 mg/dL
same,TOTAL PROTEIN,[1],5.9 G/DL
same,URIC ACID,[1],1.27 mg/dL
same,ABSOLUTE BASOPHIL,[2],0 CELLS/uL
same,ABSOLUTE EOSINOPHIL,[2],0 CELLS/uL
same,ABSOLUTE LYMPHOCYTE,[2],14697.33 CELLS/uL
same,ABSOLUTE MONOCYTE,[2],387 CELLS/uL
same,ABSOLUTE SEGMENTED NEUTROPHIL,[2],1049 CELLS/uL
same,BASOPHIL,[2],0%
same,EOSINOPHIL,[2],0%
same,ERYTHROCYTE COUNT,[2],5.35 x10E6/uL
same,HEMATOCRIT,[2],33.93%
same,HEMOGLOBIN,[2],13.67 G/DL
same,LEUKOCYTE COUNT,[2],16.13 x10E3/uL
same,LYMPHOCYTE,[2],91.33%
same,MEAN CORPUSCULAR HEMOGLOBIN,[2],25.53 pg
same,MEAN CORPUSCULAR HEMOGLOBIN CONCENTRATION,[2],40.27 G/DL
same,MEAN CORPUSCULAR VOLUME,[2],63.37 fL
same,MONOCYTE,[2],2.33%
same,NEUTROPHIL,[2],6.33%
same,NUCLEATED RED BLOOD CELLS,[2],0 /100WBC
same,PLATELET COUNT,[2],1089.33 x10E3/uL
same,ALANINE AMINOTRANSFERASE,[2],70.67 u/L
same,ALBUMIN,[2],4.17 G/DL
same,ALKALINE PHOSPHATASE,[2],375.33 u/L
same,ASPARTATE AMINOTRANSFERASE,[2],108 u/L
same,BLOOD UREA NITROGEN,[2],15.67 mg/dL
same,CARBON DIOXIDE,[2],28.33 mmol/L
same,CHLORIDE,[2],103.33 MEQ/L
same,CHOLESTEROL,[2],83 mg/dL
same,CREATINE PHOSPHOKINASE,[2],435 u/L
same,CREATININE,[2],0.25 mg/dL
same,GLUCOSE,[2],145.33 mg/dL
same,LACTATE DEHYDROGENASE,[2],607.67 u/L
same,LIPASE,[2],12 u/L
same,PHOSPHORUS,[2],12.1 mg/dL
same,POTASSIUM,[2],6.48 MEQ/L
same,SODIUM,[2],142.47 MEQ/L
same,TOTAL BILIRUBIN,[2],0.17 mg/dL
same,TOTAL PROTEIN,[2],5.87 G/DL
same,URIC ACID,[2],1.4 mg/dL
same,ABSOLUTE BASOPHIL,[3],0 CELLS/uL
same,ABSOLUTE EOSINOPHIL,[3],0 CELLS/uL
same,ABSOLUTE LYMPHOCYTE,[3],14510.33 CELLS/uL
same,ABSOLUTE MONOCYTE,[3],51 CELLS/uL
same,ABSOLUTE SEGMENTED NEUTROPHIL,[3],705.33 CELLS/uL
same,BASOPHIL,[3],0%
same,EOSINOPHIL,[3],0%
same,ERYTHROCYTE COUNT,[3],5.55 x10E6/uL
same,HEMATOCRIT,[3],33.37%
same,HEMOGLOBIN,[3],13.47 G/DL
same,LEUKOCYTE COUNT,[3],15.27 x10E3/uL
same,LYMPHOCYTE,[3],95%
same,MEAN CORPUSCULAR HEMOGLOBIN,[3],24.3 pg
same,MEAN CORPUSCULAR HEMOGLOBIN CONCENTRATION,[3],40.33 G/DL
same,MEAN CORPUSCULAR VOLUME,[3],60.17 fL
same,MONOCYTE,[3],0.33%
same,NEUTROPHIL,[3],4.67%
same,NUCLEATED RED BLOOD CELLS,[3],0 /100WBC
same,PLATELET COUNT,[3],1036.67 x10E3/uL
same,ALANINE AMINOTRANSFERASE,[3],50.33 u/L
same,ALBUMIN,[3],3.93 G/DL
same,ALKALINE PHOSPHATASE,[3],347.67 u/L
same,ASPARTATE AMINOTRANSFERASE,[3],100.33 u/L
same,BLOOD UREA NITROGEN,[3],18 mg/dL
same,CARBON DIOXIDE,[3],26 mmol/L
same,CHLORIDE,[3],104 MEQ/L
same,CHOLESTEROL,[3],57.67 mg/dL
same,CREATINE PHOSPHOKINASE,[3],706.67 u/L
same,CREATININE,[3],0.15 mg/dL
same,GLUCOSE,[3],145.67 mg/dL
same,LACTATE DEHYDROGENASE,[3],811.33 u/L
same,LIPASE,[3],9.67 u/L
same,PHOSPHORUS,[3],10.97 mg/dL
same,POTASSIUM,[3],6.19 MEQ/L
same,SODIUM,[3],144.13 MEQ/L
same,TOTAL BILIRUBIN,[3],0.2 mg/dL
same,TOTAL PROTEIN,[3],5.53 G/DL
same,URIC ACID,[3],1.17 mg/dL

# Reference: ChEMBL document CHEMBL3885881, “DrugMatrix”
